Patent publication US20040121931A1, “Aqueous perborate bleach composition” (Unilever Home & Persona Care USA, Division of Conopco, Inc., priority 2002, published 2004)

Assay: Iterative determination of perborate solubility in water and polyol/water (visual)
Format: physicochemical
Method: An iterative process was used to determine the extent of perborate solubilty in water and polyol/water. 1.5 g of Na perborate monohydrate was added either to 100 g of water (Table 1A) or to 90 g water and 10 g sorbitol (70% active) (Table 1B). The mixture was stirred until all of sodium perborate monohydrate was dissolved. A 0.5 g aliquot of sodium perborate monohydrate was then added to the solution while stirring and visually monitored to see if all the added sodium perborate monohydrate dissolves. If the aliquot dissolved, another 0.5 g of sodium perborate monohydrate would be added. This procedure was continued until the added perborate no longer appeared to dissolve.

[1] = 1.50 g in 90 g water + 10 g sorbitol (70%), perborate/sorbitol 1/3.55
[2] = 3.50 g in 90 g water + 10 g sorbitol (70%), perborate/sorbitol 1/1.01
[3] = 5.50 g in 90 g water + 10 g sorbitol (70%), perborate/sorbitol 1.43/1
[4] = 8.00 g in 90 g water + 10 g sorbitol (70%), perborate/sorbitol 2.09/1
[5] = 8.50 g in 90 g water + 10 g sorbitol (70%), perborate/sorbitol 2.22/1
[6] = 9.50 g in 90 g water + 10 g sorbitol (70%), perborate/sorbitol 2.49/1

With `O.O=BO[O-].[Na+]` [Sodium Perborate monohydrate, sodium perborate monohydrate] the Appearance [1] was “Clear solution”, the pH [1] was 8.30 and the Appearance (1.5 g in 100 g water) was “Clear solution”. For the same compound, the pH (1.5 g in 100 g water) was 10.00, the Appearance (2.0 g in 100 g water) was “Precipitate formed” and the pH (2.0 g in 100 g water) was 10.06. For the same compound, the Appearance [2] was “Clear solution”, the pH [2] was 9.33 and the Appearance [3] was “Clear solution”. The pH [3] was 9.56, the Appearance [4] was “Clear solution” and the pH [4] was 9.60. The Appearance [5] was “Precipitate”, the pH [5] was 9.60 and the Appearance [6] was “Precipitate”. The pH [6] was 9.60, the “solubility in water, in the presence of polyol” value (90 g water and 10 g sorbitol (70% active)) was “up to 8.5 g” and the “increase of solubility of perborate by polyol” value (aqueous environment, with sorbitol vs without) was “about 400%”. The solubility in water (in 100 g water, no polyol) was “below 2.0 g”.
